The subject of one data set is Artemia salina. As to the kind of experiment: Toxicity in Artemia salina. Type of data set: organism-based. The conditions noted are these: in vivo.
Data set [1] is described as follows: Cytotoxicity against human 9KB cells. Type of data set: functional. The conditions noted are these: read-out: ED50 (the source's name).
Data set [2] concerns Agrobacterium tumefaciens. The data set can be described thus: Antitumor activity against Agrobacterium tumefaciens-induced crown gall tumor in potato tubers by potato disk test. The data set is classed as functional.
The subject of another data set is Mus musculus. As to the kind of experiment: In vivo cytotoxicity against mouse 3PS cells up to 200 mg/kg relative to control. Type of data set: functional, organism-based. Also noted: dose 200 mg/kg.
Data set [3] can be described thus: In vivo cytotoxicity against mouse 3PS cells at 50 mg/kg relative to control. Type of data set: functional.
Data set [4] can be described thus: Cytotoxicity against mouse 9PS cells. Type of data set: functional. The note with it: read-out: ED50 (the source's name).

≈ marks a conversion by molar mass, not a printed value. Calls of active or inactive are those of the source. No cut-off for these calls is given here.

What is called LC50 is the concentration lethal to half of the exposed cells or organisms. Low readings indicate a more lethal substance, high ones a less lethal substance. In turn, `COc1cc(C=O)ccc1O` [VANILLIN] displayed an LC50 in the data set on Artemia salina of 31 ppm.
For the compound `COc1cc(/C=C/c2ccc(O)c(OC)c2)cc(OC)c1`, the LC50 in the data set on Artemia salina is on record as greater than 1000 ppm. In data set [1], the EC50 amounted to 0.25 µg/mL (≈ 0.873 µM). The “inhibition (INH)” value in data set [2] is 19%. In addition, the result in the data set on Mus musculus was inactive.
The T/C is the result in the treated group divided by that in the control group, in per cent. Compound `COc1cc(/C=C/c2ccc(OC)c(O)c2)cc(OC)c1` had an LC50 in the data set with Artemia salina of 2.8 ppm. Further, the EC50 is less than 0.01 µg/mL in data set [1] and 0.1 µg/mL (≈ 0.349 µM) in data set [4]. Besides, in data set [2], the “inhibition (INH)” value is reported as 22%. Also, in data set [3], the T/C is reported as 119%.
As to `COc1ccc(C=O)cc1O` [ISOVANILLIN], in the data set with Artemia salina, the LC50 is reported as 31 ppm.
`Oc1cc(O)cc(/C=C/c2ccc(O)c(O)c2)c1` [PICEATANNOL] returned an LC50 in the data set on Artemia salina of 278 ppm.

Source of the values: ChEMBL document CHEMBL1150702, “3,3',5'-Tri-O-methylpiceatannol and 4,3',5'-tri-O-methylpiceatannol: improvements over piceatannol in bioactivity” (J Nat Prod, 1987).
